Data taken from US20250145589A1, “PYRIDINE DERIVATIVE AND USE THEREOF” (SICHUAN HUIYU PHARMACEUTICAL CO., LTD., priority 2021, published 2025).

How the values were obtained:
KRAS^G12C-SOS1 = KRAS^G12C-SOS1 (Homo sapiens (Human), UniProt P01116, G12C); test: HTRF KRAS G12C/SOS1 binding assay; details: Table 5
Procedure, shortened: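 Compound was serially diluted five-fold over eight points, with a 2 mM DMSO stock. After anti-tag-Tb3+ and anti-tag-XL665 were added, plates were incubated 3 h at 4 °C and read by HTRF (ex 337 nm, em 620/665 nm ratio). IC50 values come from four-parameter variable-slope fits.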

PI3Kα = PI3Kα (Homo sapiens (Human), UniProt P42336); test: Inhibition of PI3Kα efficacy assay (ADP-Glo kinase assay); assay type: biochemical; details: Table 4; read-out: PI3Kα inhibitory activity (IC50)
Sequence of PI3Kα (P42336 whole entry): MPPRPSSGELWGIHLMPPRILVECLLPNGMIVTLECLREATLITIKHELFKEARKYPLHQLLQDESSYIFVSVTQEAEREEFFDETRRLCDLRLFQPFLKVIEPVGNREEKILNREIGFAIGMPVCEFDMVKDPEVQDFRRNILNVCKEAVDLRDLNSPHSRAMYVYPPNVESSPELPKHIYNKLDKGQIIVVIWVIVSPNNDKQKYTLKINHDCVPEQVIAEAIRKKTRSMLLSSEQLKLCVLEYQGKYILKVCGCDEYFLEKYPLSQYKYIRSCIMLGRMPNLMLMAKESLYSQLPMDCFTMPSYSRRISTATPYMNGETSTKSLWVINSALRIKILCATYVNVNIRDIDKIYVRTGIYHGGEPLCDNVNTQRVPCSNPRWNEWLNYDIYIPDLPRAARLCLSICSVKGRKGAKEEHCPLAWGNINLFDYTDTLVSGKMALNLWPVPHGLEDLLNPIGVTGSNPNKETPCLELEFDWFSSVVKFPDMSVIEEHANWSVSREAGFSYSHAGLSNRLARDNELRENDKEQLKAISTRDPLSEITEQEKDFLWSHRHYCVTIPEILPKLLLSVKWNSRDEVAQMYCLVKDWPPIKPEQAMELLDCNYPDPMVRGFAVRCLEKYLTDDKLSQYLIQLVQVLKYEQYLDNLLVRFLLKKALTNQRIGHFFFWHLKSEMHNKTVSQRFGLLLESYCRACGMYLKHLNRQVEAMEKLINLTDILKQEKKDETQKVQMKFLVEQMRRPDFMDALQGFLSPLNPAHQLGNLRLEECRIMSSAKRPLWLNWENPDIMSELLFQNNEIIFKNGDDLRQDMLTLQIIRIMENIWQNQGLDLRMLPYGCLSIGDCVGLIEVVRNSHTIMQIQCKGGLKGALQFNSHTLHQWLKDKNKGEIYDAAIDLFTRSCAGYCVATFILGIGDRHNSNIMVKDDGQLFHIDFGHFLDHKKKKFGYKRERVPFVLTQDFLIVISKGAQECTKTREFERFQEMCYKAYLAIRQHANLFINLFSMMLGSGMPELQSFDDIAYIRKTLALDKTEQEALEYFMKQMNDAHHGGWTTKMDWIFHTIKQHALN
Sequence of PI3Kα (P27986 whole entry partner): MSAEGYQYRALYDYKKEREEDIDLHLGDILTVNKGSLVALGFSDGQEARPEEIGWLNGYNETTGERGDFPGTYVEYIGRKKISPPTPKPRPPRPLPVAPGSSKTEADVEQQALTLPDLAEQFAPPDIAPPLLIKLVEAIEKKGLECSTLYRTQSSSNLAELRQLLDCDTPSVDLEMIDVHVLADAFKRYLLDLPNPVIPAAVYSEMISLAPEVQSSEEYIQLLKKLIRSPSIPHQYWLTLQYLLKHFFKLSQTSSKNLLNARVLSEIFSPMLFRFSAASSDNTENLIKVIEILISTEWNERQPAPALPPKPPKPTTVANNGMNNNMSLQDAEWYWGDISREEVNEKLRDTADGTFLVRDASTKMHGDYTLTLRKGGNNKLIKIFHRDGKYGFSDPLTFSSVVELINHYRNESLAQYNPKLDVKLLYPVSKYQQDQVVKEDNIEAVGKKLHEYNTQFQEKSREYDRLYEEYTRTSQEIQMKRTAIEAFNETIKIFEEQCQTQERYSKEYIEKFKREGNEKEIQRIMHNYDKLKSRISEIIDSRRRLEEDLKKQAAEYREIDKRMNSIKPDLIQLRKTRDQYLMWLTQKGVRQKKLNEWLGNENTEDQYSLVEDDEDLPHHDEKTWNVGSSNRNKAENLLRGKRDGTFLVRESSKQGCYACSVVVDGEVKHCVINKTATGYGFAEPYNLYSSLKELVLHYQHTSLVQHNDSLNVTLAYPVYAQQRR
Procedure, shortened: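 Eight five-fold dilutions of compound (2 mM DMSO stock) tested; kinase reaction with PI and ATP ran 60 min at RT, followed by ADP-Glo and detection reagent steps of 40 min each. Four-parameter logistic fitting gave IC50 values.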

PI3Kδ = PI3Kδ (Homo sapiens (Human), UniProt O00329); test: Inhibition of PI3Kδ efficacy assay (ADP-Glo kinase assay); assay type: biochemical; details: Table 4; read-out: PI3Kδ inhibitory activity (IC50)
Sequence of PI3Kδ (O00329 whole entry): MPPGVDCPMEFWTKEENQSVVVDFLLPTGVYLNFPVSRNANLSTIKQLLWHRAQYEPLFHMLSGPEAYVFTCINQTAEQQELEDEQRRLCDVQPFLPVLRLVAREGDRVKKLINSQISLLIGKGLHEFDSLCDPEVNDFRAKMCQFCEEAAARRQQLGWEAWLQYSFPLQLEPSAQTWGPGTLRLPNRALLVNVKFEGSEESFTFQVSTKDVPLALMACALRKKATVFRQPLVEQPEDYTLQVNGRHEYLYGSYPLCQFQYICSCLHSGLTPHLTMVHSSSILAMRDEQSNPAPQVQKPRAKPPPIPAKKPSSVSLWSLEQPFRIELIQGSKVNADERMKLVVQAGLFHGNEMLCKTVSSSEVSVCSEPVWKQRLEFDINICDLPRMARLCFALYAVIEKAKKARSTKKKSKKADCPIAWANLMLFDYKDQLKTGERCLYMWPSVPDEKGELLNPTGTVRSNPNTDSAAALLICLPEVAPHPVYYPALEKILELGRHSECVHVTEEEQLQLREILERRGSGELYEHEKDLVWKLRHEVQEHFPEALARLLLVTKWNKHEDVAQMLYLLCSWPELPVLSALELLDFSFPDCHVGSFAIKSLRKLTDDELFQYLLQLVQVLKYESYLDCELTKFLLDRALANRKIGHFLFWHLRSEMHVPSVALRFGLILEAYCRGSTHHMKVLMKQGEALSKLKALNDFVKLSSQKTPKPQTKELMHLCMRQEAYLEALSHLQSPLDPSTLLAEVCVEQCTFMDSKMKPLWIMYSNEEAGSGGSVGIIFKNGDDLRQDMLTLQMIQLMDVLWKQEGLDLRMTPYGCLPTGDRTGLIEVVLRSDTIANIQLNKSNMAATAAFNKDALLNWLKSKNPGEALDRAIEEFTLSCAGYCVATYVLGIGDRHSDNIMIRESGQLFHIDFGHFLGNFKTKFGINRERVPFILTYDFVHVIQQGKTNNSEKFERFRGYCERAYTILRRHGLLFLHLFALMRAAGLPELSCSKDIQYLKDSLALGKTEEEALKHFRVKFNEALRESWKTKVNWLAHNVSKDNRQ
Sequence of PI3Kδ (P27986 whole entry partner): as the sequence (P27986 whole entry partner) above
Procedure, shortened: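 Luminescent ADP-Glo readout of PI3Kδ: after a 60 min RT reaction with PI/ATP substrate, ATP depletion (40 min) and ADP detection (40 min) steps followed. Compounds tested as eight five-fold serial dilutions; inhibition rates fitted to log(inhibitor) vs. response, variable slope, for IC50.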

Sequence of KRAS^G12C-SOS1 (P01116-2 other isoform, or with tags, fused parts or gaps G12C): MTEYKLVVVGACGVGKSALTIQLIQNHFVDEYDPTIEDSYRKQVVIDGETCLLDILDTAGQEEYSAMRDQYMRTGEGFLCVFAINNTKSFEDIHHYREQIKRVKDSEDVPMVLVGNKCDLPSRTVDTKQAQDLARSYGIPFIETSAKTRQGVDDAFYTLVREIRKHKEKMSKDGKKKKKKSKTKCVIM

Structure (SMILES) | IC50 (KRAS^G12C-SOS1) [nM] | IC50 (PI3Kα) [nM] | IC50 (PI3Kδ) [nM]
COc1ncc(-c2ccc3ncnc(N4CCN(C(=O)/C=C/C(C)=O)C[C@@H]4C)c3c2)cc1NS(=O)(=O)c1sc(C)nc1C [Example 173, (S,E)-N-(2-methoxy-5-(4-(2-methyl-4-(4-oxopent-2-enoyl)piperazin-1-yl)quinazolin-6-yl)pyridin-3-yl)-2,4-dimethyl-thiazole-5-sulfonamide] | 199 | 2.2 | 16.5
COc1ncc(-c2ccc3ncnc(N4CCN(C(=O)/C=C/C(C)=O)C[C@@H]4C)c3c2)cc1NS(=O)(=O)c1ccc(F)cc1Cl [Example 174, (S,E)-2-chloro-4-fluoro-N-(2-methoxy-5-(4-(2-methyl-4-(4-oxopent-2-enoyl)piperazin-1-yl)quinazolin-6-yl)pyridin-3-yl)benzene-sulfonamide] | 423 | 3.5 | 17.1
COc1ncc(-c2ccc3ncnc(N4CC5CCC(C4)N5C(=O)/C=C/C(C)=O)c3c2)cc1NS(=O)(=O)c1ccc(F)cc1Cl [Example 175, 2-chloro-4-fluoro-N-(2-methoxy-5-(4-(8-((E)-4-oxopent-2-enoyl)-3,8-diazabicyclo [3.2.1]octan-3-yl)quinazolin-6-yl)pyridin-3-yl)benzene-sulfonamide] | 288 | 6 | 16.2
COc1ncc(-c2ccc3ncnc(N4CC5CCC(C4)N5C(=O)/C=C/C(C)=O)c3c2)cc1NS(=O)(=O)c1sc(C)nc1C [Example 176, N-(2-methoxy-5-(4-(8-((E)-4-oxopent-2-enoyl)-3,8-diazabicyclo [3.2.1]octan-3-yl)quinazolin-6-yl)pyridin-3-yl)-2,4-dimethyl-thiazole-5-sulfonamide] | 113 | 2.6 | 13.9
COc1ncc(-c2ccc3ncnc(N4CCN(C(=O)/C=C/C(C)=O)CC4)c3c2)cc1NS(=O)(=O)c1ccc(Cl)cc1F [Example 177, (E)-4-chloro-2-fluoro-N-(2-methoxy-5-(4-(4-(4-oxopent-2-enoyl)piperazin-1-yl)quinazolin-6-yl)pyridin-3-yl)benzene-sulfonamide] | 246 | 5 | 19.1
COc1ncc(-c2ccc3ncnc(N4CCC5(CC4)CN(C(=O)/C=C/C(C)=O)C5)c3c2)cc1NS(=O)(=O)c1sc(C)nc1C [Example 178, (E)-N-(2-methoxy-5-(4-(2-(4-oxopent-2-enoyl)-2,7-diazaspiro[3.5]nonan-7-yl)quinazolin-6-yl)pyridin-3-yl)-2,4-dimethyl-thiazole-5-sulfonamide] | 213 | 20.5 | 9.2
COc1ccc(Cl)c(S(=O)(=O)Nc2cc(-c3ccc4ncnc(N5CCN(C(=O)/C=C/C(C)=O)CC5)c4c3)cnc2OC)c1 [Example 184, (E)-2-chloro-5-methoxy-N-(2-methoxy-5-(4-(4-(4-oxopent-2-enoyl)piperazin-1-yl)quinazolin-6-yl)pyridin-3-yl)benzene-sulfonamide] | 365 | 0.81 | 16.2
COc1ncc(-c2ccc3ncnc(C4=CCN(C(=O)/C=C/C(C)=O)CC4)c3c2)cc1NS(=O)(=O)c1ccc(F)cc1F [Example 198, (E)-2,4-difluoro-N-(2-methoxy-5-(4-(1-(4-oxopent-2-enoyl)-1,2,3,6-tetrahydropyridin-4-yl)quinazolin-6-yl)pyridin-3-yl)benzenesulfonamide] | 133 | 1.1 | 13.3
COc1ncc(-c2ccc3ncnc(C4=CCN(C(=O)/C=C/C(C)=O)CC4)c3c2)cc1NS(=O)(=O)c1sc(C)nc1C [Example 199, (E)-N-(2-methoxy-5-(4-(1-(4-oxopent-2-enoyl)-1,2,3,6-tetrahydropyridin-4-yl)quinazolin-6-yl)pyridin-3-yl)-2,4-dimethylthiazole-5-sulfonamide] | 176 | 1.5 | 12
COc1ncc(-c2ccc3ncnc(C4=CCN(C(=O)/C=C/C(C)=O)CC4)c3c2)cc1NS(=O)(=O)c1ccccc1F [Example 200, (E)-2-fluoro-N-(2-methoxy-5-(4-(1-(4-oxopent-2-enoyl)-1,2,3,6-tetrahydropyridin-4-yl)quinazolin-6-yl)pyridin-3-yl)benzene-sulfonamide] | 133 | 2.3 | 9.7
COc1ncc(-c2ccc3ncnc(C4=CCN(C(=O)/C=C/C(C)=O)CC4)c3c2)cc1NS(=O)(=O)c1c(F)cccc1F [Example 201, (E)-2,6-difluoro-N-(2-methoxy-5-(4-(1-(4-oxopent-2-enoyl)-1,2,3,6-tetrahydropyridin-4-yl)quinazolin-6-yl)pyridin-3-yl)benzenesulfonamide] | 140 | 3.8 | 11.8
COc1ncc(-c2ccc3ncnc(C4=CCN(C(=O)/C=C/C(C)=O)CC4)c3c2)cc1NS(=O)(=O)c1c(F)cccc1Cl [Example 202, (E)-2-chloro-6-fluoro-N-(2-methoxy-5-(4-(1-(4-oxopent-2-enoyl)-1,2,3,6-tetrahydropyridin-4-yl)quinazolin-6-yl)pyridin-3-yl)benzene-sulfonamide] | 142 | 1.9 | 27.9
COc1ncc(-c2ccc3ncnc(C4CCN(C(=O)/C=C/C(C)=O)CC4)c3c2)cc1NS(=O)(=O)c1sc(C)nc1C [Example 203, (E)-N-(2-methoxy-5-(4-(1-(4-oxopent-2-enoyl)piperidin-4-yl)quinazolin-6-yl)pyridin-3-yl)-2,4-dimethylthiazole-5-sulfonamide] | 419 | 2.4 | 10.4
COc1ncc(-c2ccc3ncnc(C4CCN(C(=O)/C=C/C(C)=O)CC4)c3c2)cc1NS(=O)(=O)c1ccccc1F [Example 204, (E)-2-fluoro-N-(2-methoxy-5-(4-(1-(4-oxopent-2-enoyl)piperidin-4-yl)quinazolin-6-yl)pyridin-3-yl)benzenesulfonamide] | 306 | 3.3 | 17
COc1ncc(-c2ccc3ncnc(C4CCN(C(=O)/C=C/C(C)=O)CC4)c3c2)cc1NS(=O)(=O)c1c(F)cccc1F [Example 205, (E)-2,6-difluoro-N-(2-methoxy-5-(4-(1-(4-oxopent-2-enoyl)piperidin-4-yl)quinazolin-6-yl)pyridin-3-yl) benzenesulfonamide] | 369 | 1.3 | 9
COc1ncc(-c2ccc3ncnc(C4CCN(C(=O)/C=C/C(C)=O)CC4)c3c2)cc1NS(=O)(=O)c1c(F)cccc1Cl [Example 206, (E)-2-chloro-6-fluoro-N-(2-methoxy-5-(4-(1-(4-oxopent-2-enoyl)piperidin-4-yl)quinazolin-6-yl)pyridin-3-yl) benzenesulfonamide] | 188 | 3.9 | 15
COc1ncc(-c2ccc3ncnc(N4CCN(C(=O)/C=C/C(C)=O)CC4)c3n2)cc1NS(=O)(=O)c1c(F)cncc1F [Example 210, (E)-3,5-difluoro-N-(2-methoxy-5-(4-(4-(4-oxopent-2-enoyl)piperazin-1-yl)pyrido[3,2-d]pyrimidin-6-yl)pyridin-3-yl)pyridine-4-sulfonamide] | 131 | 0.54 | 5.9
COc1ncc(-c2ccc3ncnc(N4CCN(C(=O)/C=C/C(C)=O)CC4)c3n2)cc1NS(=O)(=O)c1cc(F)ccc1F [Example 217, (E)-2,5-difluoro-N-(2-methoxy-5-(4-(4-(4-oxopent-2-enoyl)piperazin-1-yl)pyrido[3,2-d]pyrimidin-6-yl)pyridin-3-yl) benzene-sulfonamide] | 207 | 0.41 | 10.6
COc1ncc(-c2ccc3ncnc(N4CCN(C(=O)/C=C/C(C)=O)CC4)c3n2)cc1NS(=O)(=O)c1cccc(F)c1F [Example 218, (E)-2,3-difluoro-N-(2-methoxy-5-(4-(4-(4-oxopent-2-enoyl)piperazin-1-yl)pyrido[3,2-d]pyrimidin-6-yl)pyridin-3-yl) benzene-sulfonamide] | 292 | 2.6 | 10.8
COc1ncc(-c2ccc3ncnc(N4CCN(C(=O)/C=C/C(C)=O)CC4)c3n2)cc1NS(=O)(=O)c1c(F)cc(F)cc1F [Example 219, (E)-2,4-trifluoro-N-(2-methoxy-5-(4-(4-(4-oxopent-2-enoyl)piperazin-1-yl)pyrido[3,2-d]pyrimidin-6-yl)pyridin-3-yl) benzene-sulfonamide] | 152 | 0.91 | 11.6
COc1ncc(-c2ccc3ncnc(N4CCN(C(=O)/C=C/C(C)=O)CC4)c3n2)cc1NS(=O)(=O)c1ccncc1F [Example 220, (E)-3-fluoro-N-(2-methoxy-5-(4-(4-(4-oxopent-2-enoyl)piperazin-1-yl)pyrido[3,2-d]pyrimidin-6-yl)pyridin-3-yl) pyridine-4-sulfonamide] | 274 | 1.1 | 11.4
COc1ncc(-c2ccc3ncnc(N4CCN(C(=O)/C=C/C(C)=O)CC4)c3n2)cc1NS(=O)(=O)c1c(Cl)cncc1Cl [Example 224, (E)-3,5-dichloro-N-(2-methoxy-5-(4-(4-(4-oxopent-2-enoyl)piperazin-1-yl)pyrido[3,2-d]pyrimidin-6-yl)pyridin-3-yl) pyridine-4-sulfonamide] | 188 | 1.1 | 23.8
